Measured values reported in patent publication US6737383B1, “Herbicidal oxadiazolidines” (priority 1999, dated 2004).

Assays:
bedstraw = experiment: Test B pre/postemergence bedstraw; assay type: in vivo, Galium aparine
Procedure, shortened: (§1)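 Test chemicals in a non-phytotoxic solvent mixture with surfactant were sprayed preemergence onto planted seeds and postemergence onto plants 2 to 18 cm tall (1- to 4-leaf stage). After twelve to sixteen days in a greenhouse, injury was visually rated against untreated controls from 0 (no effect) to 10 (complete control).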

blackgrass = experiment: Test B pre/postemergence blackgrass; assay type: in vivo, Alopecurus myosuroides
Procedure, shortened: as §1

surinam grass = experiment: Test B pre/postemergence surinam grass; assay type: in vivo, Brachiaria decumbens
Procedure, shortened: as §1

cocklebur = experiment: Test B pre/postemergence cocklebur; assay type: in vivo, Xanthium strumarium
Procedure, shortened: as §1

corn = experiment: Test B pre/postemergence corn; assay type: in vivo, Zea mays
Procedure, shortened: as §1

morningglory = experiment: Test B pre/postemergence morningglory; assay type: in vivo, Ipomoea hederacea
Procedure, shortened: as §1

pigweed = experiment: Test B pre/postemergence pigweed; assay type: in vivo, Amaranthus retroflexus
Procedure, shortened: as §1

rape = experiment: Test B pre/postemergence rape; assay type: in vivo, Brassica napus
Procedure, shortened: as §1

soybean = experiment: Test B pre/postemergence soybean; assay type: in vivo, Glycine max
Procedure, shortened: as §1

sugar beet = experiment: Test B pre/postemergence sugar beet; assay type: in vivo, Beta vulgaris
Procedure, shortened: as §1

velvetleaf = experiment: Test B pre/postemergence velvetleaf; assay type: in vivo, Abutilon theophrasti
Procedure, shortened: as §1

wild oat = experiment: Test B pre/postemergence wild oat; assay type: in vivo, Avena fatua
Procedure, shortened: as §1

purple nutsedge = experiment: Test B pre/postemergence purple nutsedge; assay type: in vivo, Cyperus rotundus; conditions: Preemergence
Procedure, shortened: as §1

rice = experiment: Test B flood test rice; assay type: in vivo, Oryza sativa
Procedure, shortened: (§2)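 Each value is a visual injury score relative to controls, with 10 meaning complete control and 0 no effect. Evaluation took place twelve to sixteen days after the 2-leaf-stage plants were treated and kept in the greenhouse.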

smallflower flatsedge = experiment: Test B flood test smallflower flatsedge; assay type: in vivo, Cyperus difformis
Procedure, shortened: as §2

bamyardgrass = experiment: Test B flood test barnyardgrass; assay type: in vivo, Echinochloa crus-galli
Procedure, shortened: as §2

[1] = Postemergence, Rate 250 g/ha, scale 0 to 10, 0 no effect, 10 complete control
[2] = Postemergence, Rate 1000 g/ha, scale 0 to 10 (0 no effect, 10 complete control)
[3] = Preemergence, Rate 125 g/ha, scale 0 to 10 (0 no effect, 10 complete control)
[4] = Preemergence, Rate 250 g/ha, scale of 0 to 10 where 0 is no effect and 10 is complete control
[5] = Preemergence, Rate 500 g/ha, scale 0 (no effect) to 10 (complete control)
[6] = Rate 125 g/ha, Postemergence, scale 0 to 10, 0 no effect, 10 complete control
[7] = Rate 500 g/ha, Postemergence, 0 to 10 scale (0 no effect, 10 complete control)
[8] = Rate 1000 g/ha, Preemergence, scale 0 to 10 (0 no effect, 10 complete control)
[9] = Rate 125 g/ha, Postemergence section (flood test species), scale 0 to 10, 0 no effect, 10 complete control
[10] = Rate 500 g/ha, Postemergence section of Table B, 0 to 10 scale (0 no effect, 10 complete control)
[11] = flood test, listed under Postemergence, Rate 250 g/ha, scale 0 to 10, 0 no effect, 10 complete control

COc1ccc(-n2c(=O)on(C(=O)N(C3=CCOCC3)C(C)C)c2=O)cc1 [Compound 6]
Bedstraw plant response rating (bedstraw; [1]): 0
Bedstraw plant response rating (bedstraw; [2]): 3
Plant response rating, Bedstraw (bedstraw; [3]): 0
Plant response rating, Bedstraw (bedstraw; [4]): 0
Bedstraw plant response rating (bedstraw; [5]): 0
Bedstraw plant response rating (bedstraw; [6]): 0
Bedstraw plant response rating (bedstraw; [7]): 0
Plant response rating, Bedstraw (bedstraw; [8]): 0
Blackgrass plant response rating (blackgrass; [1]): 7
Blackgrass plant response rating (blackgrass; [2]): 7
Plant response rating, Blackgrass (blackgrass; [3]): 0
Plant response rating, Blackgrass (blackgrass; [4]): 0
Blackgrass plant response rating (blackgrass; [5]): 2
Blackgrass plant response rating (blackgrass; [6]): 4
Blackgrass plant response rating (blackgrass; [7]): 7
Plant response rating, Blackgrass (blackgrass; [8]): 7
B. signalgrass plant response rating (surinam grass; [1]): 2
B. signalgrass plant response rating (surinam grass; [2]): 7
Plant response rating, B. signalgrass (surinam grass; [3]): 0
Plant response rating, B. signalgrass (surinam grass; [4]): 0
B. signalgrass plant response rating (surinam grass; [5]): 0
B. signalgrass plant response rating (surinam grass; [6]): 0
B. signalgrass plant response rating (surinam grass; [7]): 5
Plant response rating, B. signalgrass (surinam grass; [8]): 5
Cocklebur plant response rating (cocklebur; [1]): 0
Cocklebur plant response rating (cocklebur; [2]): 0
Plant response rating, Cocklebur (cocklebur; [3]): 0
Plant response rating, Cocklebur (cocklebur; [4]): 0
Cocklebur plant response rating (cocklebur; [5]): 0
Cocklebur plant response rating (cocklebur; [6]): 0
Cocklebur plant response rating (cocklebur; [7]): 0
Plant response rating, Cocklebur (cocklebur; [8]): 2
Corn plant response rating (corn; [1]): 0
Corn plant response rating (corn; [2]): 4
Plant response rating, Corn (corn; [3]): 0
Plant response rating, Corn (corn; [4]): 1
Corn plant response rating (corn; [5]): 2
Corn plant response rating (corn; [6]): 0
Corn plant response rating (corn; [7]): 0
Plant response rating, Corn (corn; [8]): 5
Morningglory plant response rating (morningglory; [1]): 2
Morningglory plant response rating (morningglory; [2]): 7
Plant response rating, Morningglory (morningglory; [3]): 0
Plant response rating, Morningglory (morningglory; [4]): 0
Morningglory plant response rating (morningglory; [5]): 0
Morningglory plant response rating (morningglory; [6]): 0
Morningglory plant response rating (morningglory; [7]): 5
Plant response rating, Morningglory (morningglory; [8]): 0
Redroot pigweed plant response rating (pigweed; [1]): 0
Redroot pigweed plant response rating (pigweed; [2]): 4
Plant response rating, Redroot pigweed (pigweed; [3]): 5
Plant response rating, Redroot pigweed (pigweed; [4]): 5
Redroot pigweed plant response rating (pigweed; [5]): 7
Redroot pigweed plant response rating (pigweed; [6]): 0
Redroot pigweed plant response rating (pigweed; [7]): 0
Plant response rating, Redroot pigweed (pigweed; [8]): 7
Rape plant response rating (rape; [1]): 0
Rape plant response rating (rape; [2]): 2
Plant response rating, Rape (rape; [3]): 0
Plant response rating, Rape (rape; [4]): 0
Rape plant response rating (rape; [5]): 0
Rape plant response rating (rape; [6]): 0
Rape plant response rating (rape; [7]): 0
Plant response rating, Rape (rape; [8]): 0
Soybean plant response rating (soybean; [1]): 3
Soybean plant response rating (soybean; [2]): 6
Plant response rating, Soybean (soybean; [3]): 0
Plant response rating, Soybean (soybean; [4]): 0
Soybean plant response rating (soybean; [5]): 0
Soybean plant response rating (soybean; [6]): 3
Plant response rating, Soybean (soybean; [8]): 0
Sugarbeets plant response rating (sugar beet; [1]): 0
Sugarbeets plant response rating (sugar beet; [2]): 3
Plant response rating, Sugarbeets (sugar beet; [3]): 0
Plant response rating, Sugarbeets (sugar beet; [4]): 0
Sugarbeets plant response rating (sugar beet; [5]): 0
Sugarbeets plant response rating (sugar beet; [6]): 0
Plant response rating, Sugarbeets (sugar beet; [8]): 0
Velvetleaf plant response rating (velvetleaf; [1]): 0
Velvetleaf plant response rating (velvetleaf; [2]): 1
Plant response rating, Velvetleaf (velvetleaf; [3]): 0
Plant response rating, Velvetleaf (velvetleaf; [4]): 2
Velvetleaf plant response rating (velvetleaf; [5]): 2
Velvetleaf plant response rating (velvetleaf; [6]): 0
Plant response rating, Velvetleaf (velvetleaf; [8]): 4
Wild oats plant response rating (wild oat; [1]): 0
Wild oats plant response rating (wild oat; [2]): 4
Plant response rating, Wild oats (wild oat; [3]): 0
Plant response rating, Wild oats (wild oat; [4]): 0
Wild oats plant response rating (wild oat; [5]): 3
Wild oats plant response rating (wild oat; [6]): 0
Plant response rating, Wild oats (wild oat; [8]): 6
Plant response rating, Nutsedge (purple nutsedge; Rate 125 g/ha, scale 0 to 10 (0 no effect, 10 complete control)): 0
Plant response rating, Nutsedge (purple nutsedge; Rate 250 g/ha, scale of 0 to 10 where 0 is no effect and 10 is complete control): 0
Nutsedge plant response rating (purple nutsedge; Rate 500 g/ha, scale 0 (no effect) to 10 (complete control)): 0
Plant response rating, Nutsedge (purple nutsedge; Rate 1000 g/ha, scale 0 to 10 (0 no effect, 10 complete control)): 0
Rice plant response rating (rice; [2]): 3
Rice plant response rating (rice; [9]): 0
Rice plant response rating (rice; [10]): 0
Rice plant response rating (rice; [11]): 0
S. Flatsedge plant response rating (smallflower flatsedge; [2]): 3
S. Flatsedge plant response rating (smallflower flatsedge; [9]): 0
S. Flatsedge plant response rating (smallflower flatsedge; [11]): 0
Barnyardgrass plant response rating (bamyardgrass; [2]): 8
Barnyardgrass plant response rating (bamyardgrass; [9]): 0
Barnyardgrass plant response rating (bamyardgrass; [10]): 0
Barnyardgrass plant response rating (bamyardgrass; [11]): 0
